Earlier results, collected in patent publication US9663462B2, “Anti-parasitic methods and compositions utilizing diindolylmethane-related indoles” (BioResponse, L.L.C., priority 2006, dated 2017).

Tests used:
[1] = test system: Human Papilloma Virus (HPV) oncogene altered cervical cancer cell lines
[2] = molecular target: Leishmania donovani topoisomerase I (LdTOPILS); conditions: read-out: IC50, inhibition of Leishmania donovani topoisomerase I (LdTOPILS)
[3] = test system: estrogen-dependent and independent breast cancer cells; conditions: isolated DIM, cell culture
[4] = test system: NFκB signaling pathway; conditions: breast cancer cells
[5] = test system: breast cancer cells
[6] = metabolic half life of DIM
[7] = test system: rainbow trout; conditions: in vivo
[8] = once formed from I3C
[9] = test system: Mitogen Activated Protein Kinase (MAPK) cell signaling pathway; conditions: cell culture
[10] = test system: chemically induced forms of breast cancer; conditions: orally administered, animals

Which results are given for `c1ccc2c(Cc3c[nH]c4ccccc34)c[nH]c2c1` [DIM, 3,3′-diindolylmethane]?
induction of apoptosis [1]: induce apoptosis; IC50 [2]: 1.2 µM; apoptosis promoting effects [3]: apoptosis promoting effects; activation of the NFκB signaling pathway [4]: reduce activation; estrogenic activity [5]: estrogenic; half-life [6]: 2 to 7 h; estrogenic activity [7]: estrogenic; stability in acid [8]: stable; activation of MAPK cell signaling pathway [9]: activate; growth of chemically induced breast cancer [10]: inhibits the growth
